Measured values published in patent US20180171291A1, “DERIVATION OF ENDOTHELIAL CELLS FROM MAMMALIAN PLUIRPOTENT STEM CELLS” (THE JOHNS HOPKINS UNIVERSITY, priority 2012, published 2018).

Test system: hPSCs
Experiment: sequential differentiation of hPSCs into endothelial cells on collagen IV, EC marker expression by flow cytometry / immunofluorescence
Format: cell-based, human
Description: In the inventive method, hPSCs were cultured at a concentration of 1.25×10^4 per cm^2 on collagen IV plates for 12 days. In the “direct” method, the cells were treated with VEGF for the entire time. With the “sequential” method, the cells were supplemented with 10% serum and were not treated with VEGF until day 6. See FIG. 1 for a comparison of the protocols.
In our sequential method, hPSCs were cultured on collagen IV plates in media supplemented with 10% serum. After 6 days in culture, cells were strained and re-cultured in media supplemented with 50 ng/ml vascular endothelial growth factor (VEGF). Cells which were differentiated via direct means were cultured in the VEGF-supplemented media for all 12 days. EC markers were examined via immunofluorescence microscopy and flow cytometry. We tested hESC line, H9, as well as hiPSC line, MR31, which was derived from normal, fetal fibroblasts using three factors, Oct-4, Sox2, Klf4 (8, 9).
However, because sequentially-derived cells were only ˜5% VEcad+, we sought to improve upon the differentiation efficiency via biochemical means. To this end, we studied the addition of a TGFβ inhibitor, SB431542 (10) as well as angiogenic growth factors, bone morphogenetic protein-4 (BMP4) and Indian Hedgehog (lhh). For our TGFβ inhibitor studies, we examined the effects of SB431542 in the second half of differentiation plus high (50 ng/ml) or low (1 ng/ml) VEGF. […] Remarkably, VEcad expression increased regardless of high or low VEGF concentrations. […] Cells expressed approximately 1% Tra-1-60 indicating they were fully differentiated.

[1] = added in the second half of sequential differentiation plus VEGF, 12 days in culture

## NC(=O)c1ccc(-c2nc(-c3ccc4c(c3)OCO4)c(-c3ccccn3)[nH]2)cc1 [SB431542]
[1]
  Expression of CD31: increased
  Expression of KDR: increased
Added in the second half of sequential differentiation plus high (50 ng/ml) or low (1 ng/ml) VEGF, 12 days in culture
  expression of mature EC marker, VEcad: dramatic increase

B1: BMP4: angiogenic growth factor, bone morphogenetic protein-4 (protein, UniProt P12644 293-408, looked up)
Bone morphogenetic protein 4: SPKHHSQRARKKNKNCRRHSLYVDFSDVGWNDWIVAPPGYQAFYCHGDCPFPLADHLNSTNHAIVQTLVNSVNSSIPKACCVPTELSAISMLYLDEYDKVVLKNYQEMVVEGCGCR
Compared with levels seen with SB431542 supplementation
  endothelial differentiation capacity: not able to augment
